The values that follow come from ChEMBL document CHEMBL1158606, “Synthesis and molecular modeling studies of 3-chloro-4-substituted-1-(8-hydroxy-quinolin-5-yl)-azetidin-2-ones as novel anti-filarial agents” (2010).

What all share (format): functional
The subject of test [1] is Brugia malayi. The test is described as follows: Antifilarial activity against Brugia malayi assessed as loss of motility at 20 ng/ml after 48 hrs by MTT assay.
Test [2] relates to Brugia malayi. Put plainly: Antifilarial activity against Brugia malayi assessed as loss of motility at 40 ng/ml after 48 hrs by MTT assay.
Test [3] has as its system Brugia malayi. Put plainly: Antifilarial activity against Brugia malayi assessed as loss of motility at 60 ng/ml after 48 hrs by MTT assay.
For test [4], the system named is Brugia malayi. The test is described as follows: Antifilarial activity against Brugia malayi assessed as loss of motility at 80 ng/ml after 48 hrs by MTT assay.
Test [5] has as its system Brugia malayi. The test is described as follows: Antifilarial activity against Brugia malayi assessed as loss of motility at 100 ng/ml after 48 hrs by MTT assay.

Active and inactive are the calls of the source. No cut-off for these calls is given here.

On to `O=C1C(Cl)C(c2ccc(Cl)cc2)N1c1ccc(O)c2ncccc12` (stereo not given), for which, in the test on Brugia malayi [1], the result was inactive. Also, the Activity in the test with Brugia malayi [2] was determined as 10%; with Brugia malayi [3] it was 19%; in the test with Brugia malayi [4], 36%; in the test with Brugia malayi [5], 59%.

On to `CC1C(Cl)C(=O)N1c1ccc(O)c2ncccc12` (stereo not given), for which the Activity was 53% in the test with Brugia malayi [1]; 61% with Brugia malayi [2]; 67% in the test with Brugia malayi [3]; 76% in the test on Brugia malayi [4]; 81% in the test with Brugia malayi [5].

Take `O=C1C(Cl)C(c2ccc(Br)cc2)N1c1ccc(O)c2ncccc12` (stereo not given): the result with Brugia malayi [1] and in the test on Brugia malayi [2] was inactive. For the same compound, the figures for the Activity with Brugia malayi [3], in the test on Brugia malayi [4] and in the test with Brugia malayi [5] were 3%, 16% and 23%, respectively.

Consider `O=C1C(Cl)C(c2ccc(F)cc2)N1c1ccc(O)c2ncccc12` (stereo not given), for which the result in the test on Brugia malayi [1] and with Brugia malayi [2] was inactive. Further, the Activity was 12% in the test on Brugia malayi [3], 26% with Brugia malayi [4] and 37% in the test with Brugia malayi [5].

Regarding `O=C1C(Cl)C(c2ccccc2)N1c1ccc(O)c2ncccc12` (stereo not given), the result with Brugia malayi [1], in the test on Brugia malayi [2] and in the test with Brugia malayi [3] was inactive. For the same compound, the Activity with Brugia malayi [4] and in the test with Brugia malayi [5] was 2% each time.

`COc1ccc(C2C(Cl)C(=O)N2c2ccc(O)c3ncccc23)cc1` (stereo not given): the Activity came to 67% in the test on Brugia malayi [1]; 76% in the test on Brugia malayi [2]; 91% in the test with Brugia malayi [3]; 91% with Brugia malayi [4]; 91% in the test with Brugia malayi [5].
